Experiments:
[1] = tested on: extracellular signal-regulated kinase (ERK) protein; assay: p-ERK level by Western blot; type: cell-based; details: MDA-MB-231, 1 μM peptide, 24 hours, vs control (FIG. 7)
Experimental: In addition, the change in phosphorylation of extracellular signal-regulated kinase (ERK) protein caused by an anticancer peptide was confirmed. ERK gene is an indicator of drug resistance and inhibition of the growth and apoptosis of cancer cells. The MDA-MB-231 cells were cultured and treated with 1 μM of a peptide (No. 1 or 2). After 24 hours, proteins were isolated from the cells, and a p-ERK level was confirmed by Western blot.

[2] = tested on: MDA-MB-231 triple-negative breast cancer cell line; assay: MTT assay, co-treatment of peptide with anticancer agent; type: cell-based; details: for cell proliferation on co-treatment with paclitaxel compared to paclitaxel alone: MDA-MB-231, 1 μM peptide + 5.4 nM paclitaxel (FIGS. 3 and 4)
Experimental: To confirm the cytotoxic and anti-proliferative effect of a peptide discovered in the present invention on cancer cells and normal cells, a 3-(4,5-diemthylthiazolyl-2)-2,5-diphenyltetrazolium bromide (MTT) assay was performed. The MTT assay is a method of measuring the growth of living cells and measuring cell viability using MTT reduction by mitochondrial reductase in living cells.
In addition, peptides and anticancer agents were administered together to the MDA-MB-231 triple-negative breast cancer cell line to explore effects associated with drug co-administration and drug resistance. Triple-negative (ER−/PR−/HER2−) breast cancer is a type of breast cancer that is difficult to treat because it is known to have drug resistance to existing hormone therapy and anticancer drugs, and is a suitable model for research on drug resistance and co-administration.
Cell viability was evaluated by an MTT assay by treating MDA-MB-231 cells with 1 μM of the peptide (No. 1 or 2), and 9 μM abemaciclib or 5.4 nM paclitaxel.

[3] = tested on: MDA-MB-231 xenograft tumor; assay: Xenograft tumor model, tumor size; type: in vivo, BALB/c nude mice; details: 2.5 mg/kg intraperitoneally daily, 6 weeks, vs PBS control (FIG. 9)
Experimental: A xenograft tumor model was constructed by injecting MDA-MB-231 cells into immunodeficient BALB/c nude mice and forming tumors for 1 week. Mice with tumors were randomly divided into a control and an experimental group. The control and the experimental group were intraperitoneally injected daily with PBS (the same volume as a peptide) and the No. 1 peptide (2.5 mg/kg), respectively, and then observed for a total of 6 weeks. During the experimental period, a tumor size was measured with a digital caliper every week, and the final tumor size was compared at week 6.

[4] = tested on: lamin B1 protein; assay: Lamin B1 cleavage by western blotting (apoptosis marker); type: cell-based; details: MDA-MB-231, 1 μM peptide, 24 hours, nuclear fraction western blotting (FIG. 8)
Experimental: Next, to confirm the relationship between the anticancer peptide and apoptosis, the degree of cleavage of lamin B1 protein was confirmed. Lamin B1 is originally a type of nuclear protein that is degraded by caspase in apoptosis and used as a biomarker of apoptosis. The MDA-MB-231 cells were cultured and treated with 1 μM of a peptide (No. 1 or 2). After 24 hours, the cells were washed with PBS twice, and lysed with lysis buffer containing NP-40. The nucleus and cytoplasm were separated by centrifugation, and western blotting was performed on each nuclear and cytoplasmic fraction. Here, to determine the degree of separation of the nucleus and cytoplasm, α-tubulin, which is a cytoplasmic marker, and lamin B1 were simultaneously analyzed.

[5] = tested on: matrix metallopeptidase 9 (MMP-9); assay: MMP-9 expression by RT-PCR; type: cell-based; details: MDA-MB-231, 1 μM peptide, 24 hours, vs control (FIG. 6)
Experimental: MDA-MB-231 cells were cultured and treated with 1 μM of a peptide (No. 1 or 2). After 24 hours, RNA was isolated from the cells and the expression level of matrix metallopeptidase 9 (MMP-9), which is a key cell migration factor, was confirmed through RT-PCR.

Row | Sequence | p-ERK level [1] | cell proliferation on co-treatment with paclitaxel compared to paclitaxel alone [2] | tumor growth (tumor size) [3] | cleavage of lamin B1 protein [4] | expression of MMP-9 [5] | cell proliferation on co-treatment with abemaciclib compared to abemaciclib alone ([2]; MDA-MB-231, 1 μM peptide + 9 μM abemaciclib (FIG. 4))
1 | EKAEEDRYFR (listed as Mus musculus) [No. 1] | significantly reduced | further inhibited | significant tumor growth inhibitory effect | cleaved | significantly reduced | 
2 | EQAEEERYFR (listed as Homo sapiens) [No. 2] | significantly reduced | further inhibited |  | cleaved | significantly reduced | further inhibited

From US20240293500A1, “PEPTIDE HAVING ANTICANCER ACTIVITY, AND USE THEREOF” (Korea University Research and Business Foundation, priority 2021, published 2024)
